Laboratory results from US6399631B1, “Carbazole neuropeptide Y5 antagonists” (Pfizer Inc., priority 1999, dated 2002).
pIC50: −log10 of the molar value.

Key:
neuropeptide Y receptor = conditions: in vitro test for neuropeptide Y receptor antagonism; cited from earlier work
Y1 = molecular target: T1, Y1 (Homo sapiens, UniProt P25929); assay: endogenous NPY response in Bowes melanoma cell host; conditions: at 10 uM; human Bowes melanoma cell line (HMCB)
T1 sequence (P25929 1-384): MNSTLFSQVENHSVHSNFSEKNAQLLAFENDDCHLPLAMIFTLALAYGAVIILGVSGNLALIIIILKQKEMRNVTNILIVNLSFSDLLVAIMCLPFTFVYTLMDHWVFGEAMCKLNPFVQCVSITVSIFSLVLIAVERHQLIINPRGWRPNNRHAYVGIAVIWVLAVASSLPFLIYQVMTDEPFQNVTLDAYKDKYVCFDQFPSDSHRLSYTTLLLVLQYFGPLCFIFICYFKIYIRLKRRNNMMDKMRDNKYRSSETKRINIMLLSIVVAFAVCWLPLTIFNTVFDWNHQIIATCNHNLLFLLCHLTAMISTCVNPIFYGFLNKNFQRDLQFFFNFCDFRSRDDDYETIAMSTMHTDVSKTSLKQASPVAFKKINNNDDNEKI

endogenous NPY response (Y1) | Compound | pIC50 (neuropeptide Y receptor)
– | Cc1cc(N2CCCC2)cc(/C=C/c2cccc(C(F)(F)F)c2)n1 [(E)-2-methyl4-pyrrolidino-6-[2-(3-trifluoromethylphenyl)vinyl]pyridine] | 8.39
completely blocked | NC(N)=NCCC[C@@H](NC(=O)C(c1ccccc1)c1ccccc1)C(=O)NCc1ccc(O)cc1 [BIBP3226] | –
